# In patent publication US20210145852A1, “Combination Therapies for Treating Muscular Dystrophy” (Sarepta Therapeutics, Inc., priority 2017, published 2021):
# “Also recorded” adds a separate entry of the source. Like-named read-outs stand apart in the source and are kept apart here. {TEG} = triethylene glycol tail moiety
# How the values were obtained:
# [1] = system: Mdx mice; experiment: Histology (H&E and picrosirius red staining) of quadriceps, PMO and CAT-1004 efficacy study in Mdx mice; format: in vivo, mouse; settings: 4 weeks treatment, M23D PMO 40 mg/kg IV weekly or CAT-1004 1% in diet, compared to Mdx mice treated with saline
# Text: Wild-type (WT) (C57BL/10ScSn/J) and Mdx (C57BL/10ScSn-Dmd^mdx/J) mice were used to test the efficacy of the M23D PMO (AVI-4225) in combination with CAT-1004. 5-week old mice were acquired from Jackson Labs and acclimated for one-week. The treatment duration was 4 weeks and began when the mice were 6 weeks of age. Mice were divided into the following five treatment groups, each with N=12: (1) wild-type mice treated with saline, (2) Mdx mice treated with saline, (3) Mdx mice treated with CAT-1004, (4) Mdx mice treated with the M23D PMO, and (5) Mdx mice treated with the M23D PMO in combination with CAT-1004. Mice were dosed weekly with M23D PMO (AVI-4225) at 40 mg/kg by IV injection and treated with CAT-1004 (1%) in their diet. […] Food consumption was closely monitored and the feed was changed twice per week. […]
# To assess the effectiveness of a combination treatment of an exon skipping antisense oligonucleotide and an NF-Kb inhibitor in Duchenne muscular dystrophy, M23D PMO and CAT-1004 were utilized in the Mdx mouse model. The effect on inflammation and fibrosis was determined by analyzing samples of muscle taken from the quadriceps, of (1) wild-type mice treated with saline, (2) mdx mice treated with saline, (3) mdx mice treated with CAT-1004, (4) mdx mice treated with the M23D PMO, and (5) mdx mice treated with the M23D PMO in combination with CAT-1004. […]
# [2] = system: golden retriever muscular dystrophy (GRMD) dog; settings: cited from earlier work; for phenotype: GRMD dog, long-term treatment; for diaphragm function: dog DMD model
# [3] = system: mouse dystrophin exon 23 pre-mRNA; experiment: RT-PCR analysis for exon 23 skipping in Mdx mice; format: in vivo; settings: muscle of quadriceps, diaphragm and heart of Mdx mice; 4 weeks treatment
# Text: (§1) Wild-type (WT) (C57BL/10ScSn/J) and Mdx (C57BL/10ScSn-Dmd^mdx/J) mice were used to test the efficacy of the M23D PMO (AVI-4225) in combination with CAT-1004. 5-week old mice were acquired from Jackson Labs and acclimated for one-week. The treatment duration was 4 weeks and began when the mice were 6 weeks of age. Mice were divided into the following five treatment groups, each with N=12: (1) wild-type mice treated with saline, (2) Mdx mice treated with saline, (3) Mdx mice treated with CAT-1004, (4) Mdx mice treated with the M23D PMO, and (5) Mdx mice treated with the M23D PMO in combination with CAT-1004. Mice were dosed weekly with M23D PMO (AVI-4225) at 40 mg/kg by IV injection and treated with CAT-1004 (1%) in their diet. All non-CAT-1004 animals were fed a normal chow control diet and all non-M23D PMO animals were given weekly IV injections of saline. Food consumption was closely monitored and the feed was changed twice per week. Mice were sacrificed at 10 weeks of age (4 weeks post-first dose). The quadriceps, diaphragm, and heart were harvested from each of the respective treatment groups.
# For exon skipping analysis, quadriceps, diaphragm, and heart tissue samples were homogenized. […] Exon 23 skipping was determined by Caliper imaging. […] Percentage of skipping was determined using the formula: % skipping=skipped molarity/(unskipped+skipped molarity)×100%. […]
# [4] = system: Mdx mice; settings: cited from earlier work; for inflammation and fibrosis: mdx mice (Hammers et al.); for phenotype: mdx mouse, long-term treatment; for diaphragm function: mouse DMD model (mdx)
# [5] = system: dystrophin protein; experiment: Western blot analysis of dystrophin protein levels in Mdx mice; format: in vivo, mouse; settings: quadriceps, diaphragm and heart of Mdx mice, combination compared to M23D PMO monotherapy
# Text: as §1
# Dystrophin protein was analyzed by Western blot analysis, and immunohistochemistry. […] Total protein concentration of the protein lysates were measured using Pierce™ BCA Protein Assay Kit (ThermoFisher Scientific catalog #23225). […]
# [6] = phase I clinical program, adults, placebo-controlled studies; cited from earlier work
# [7] = system: cNF-κB; settings: in vitro; cited from earlier work
# [8] = system: NF-κB; settings: cited from earlier work
# [9] = system: NF-κB p65; settings: cited from earlier work
# [10] = system: ryanodine receptor; settings: mouse model of DMD; cited from earlier work
# [11] = system: ryanodine receptor; settings: patient cells; cited from earlier work
# [12] = cited from earlier work
# [13] = system: dystrophin; experiment: Immunohistochemical analysis of dystrophin expression in quadriceps of Mdx mice; format: in vivo, mouse; settings: compared to Mdx mice treated with saline or CAT-1004 monotherapy
# Text: as §1
# For immunohistochemistry, frozen quadriceps sections were serially cut and mounted on slides using a cryostat. Sections were rehydrated in PBS and then blocked with Mouse on Mouse (MOM) blocking buffer for 1 hour at room temperature. […]
# [14] = system: human DMD transcript; settings: hDMD mouse model; cited from earlier work
# [15] = system: exon 51 of dystrophin pre-mRNA; settings: normal human skeletal muscle cells or muscle cells from DMD patients; RT-PCR and Western blot; cited from earlier work
# [16] = system: juvenile rats; settings: T cell-dependent antibody responses, immunophenotyping of peripheral blood T- and B-cell subpopulations; cited from earlier work
compound,measurement,setting,value
"CC/C=C\C/C=C\C/C=C\C/C=C\C/C=C\C/C=C\CCC(=O)NCCNC(=O)c1ccccc1O [CAT-1004, N-(2-[(4Z,7Z,10Z,13Z,16Z,19Z)-docosa-4,7,10,13,16,19-hexaenamido]ethyl)-2-hydroxybenzamide]",inflammation and fibrosis in quadriceps,[1],reduction of inflammation and fibrosis
same,phenotype,[2],improves the phenotype
same,diaphragm function,[2],improved diaphragm function
same,exon 23 skipping,[3],neither exon skipping nor dystrophin production were observed
same,inflammation and fibrosis,[4],reduced inflammation and fibrosis
same,cumulative run distance,"[4]; mdx mice, long-term studies",increased cumulative run distance
same,exercise endurance,[4]; mdx mice,increased exercise endurance
same,muscle degeneration and inflammation,[4]; mdx mice,reduce muscle degeneration and inflammation
same,muscle function,[4]; mdx mice,preserve muscle function
same,muscle regeneration,[4]; mdx mice,enhance muscle regeneration
same,phenotype,[4],improves the phenotype
same,diaphragm function,[4],improved diaphragm function
same,dystrophin production,[5],neither exon skipping nor dystrophin production were observed
same,safety and tolerability,[6],"safe, well tolerated"
same,cNF-κB activation,[7],inhibit cNF-κB activation in vitro
same,levels of the p65 subunit of NF-κB,"[8]; healthy adult humans, compared to placebo or salicylate and omega-3 DHA as separate molecules",lowers levels of the p65 subunit of NF-κB
same,biomarkers of inflammation in whole blood,[8]; humans,decrease of biomarkers of inflammation
same,activated NF-κB pathways,"[8]; phase I clinical program in adults, listed as Edasalonexent",inhibited activated NF-kB pathways; also recorded: inhibited activated NF-κB pathways
same,NF-κB activity,[9]; dog model of DMD,decreases NF-κB activity
same,binding of the p65 subunit to DNA,[9]; dog model of DMD,reduced binding of the p65 subunit to DNA
same,secretion of the inflammatory mediator TNF-α,[9]; dog model of DMD,reduced secretion of the inflammatory mediator TNF-α
same,NF-κB p65-dependent inflammatory responses and downstream proinflammatory genes modulated by p65,[9]; golden retriever DMD model,significantly inhibit
CC/C=C\C/C=C\C/C=C\C/C=C\C/C=C\CCCC(=O)NCCNC(=O)c1ccccc1O [CAT-1041],phenotype,[2],improves the phenotype
same,diaphragm function,[2],improved diaphragm function
same,inflammation and fibrosis,[4],reduced inflammation and fibrosis
same,muscle fibrosis,"[4]; mdx mice, long-term studies",reduces muscle fibrosis
same,skeletal muscle weight,"[4]; mdx mice, long-term studies",increases skeletal muscle weight
same,exercise endurance,[4]; mdx mice,increased exercise endurance
same,muscle function,[4]; mdx mice,preserves muscle function
same,phenotype,[4],improves the phenotype
same,diaphragm function,[4],improved diaphragm function
same,cNF-κB activation,[7],inhibit cNF-κB activation in vitro
O=C1CN(/N=C/c2ccc(-c3ccc([N+](=O)[O-])cc3)o2)C(O)=N1 [dantrolene],antisense-mediated exon skipping,[10],enhance antisense-mediated exon skipping
same,antisense-mediated exon skipping,[11],enhance antisense-mediated exon skipping
G-2-beta-cyclodextrin,solubility in water,[12],147 % (w/v)
"M23D PMO: PMO hybridizing to mouse dystrophin exon 23 pre-mRNA, TEG tail at 5′ end, sequence GGCCAAACCTCGGCTTACCTGAAAT (SEQ ID NO: 30) (antisense GGCCAAACCTCGGCTTACCTGAAAT; all phosphorodiamidate morpholino (PMO), 5' {TEG})",inflammation and fibrosis in quadriceps,[1],reduction of inflammation and fibrosis
same,exon 23 skipping,[3],Exon skipping was observed
same,dystrophin expression (immunohistochemistry),[13],increase in dystrophin expression
eteplirsen,exon 51 skipping in vivo,[14],confirmed in vivo
same,exon 51 skipping,[15],potent inducer of exon 51 skipping
same,effect on the immune response,[16],no adverse effect on the immune response
triacetyl-beta-cyclodextrin,solubility in water (in words),[12],insoluble
